Results: patent US9161935B2 (TEVA PHARMACEUTICAL INDUSTRIES, LTD., priority 2012, dated 2015)

Assays:
[1] = test system: Moderate to severe Crohn's disease (CD) subjects; test: Phase IIa trial CD-LAQ-201: safety/tolerability (adverse events); format: in vivo, human
Text: Safety/Tolerability • 1. Adverse events (AEs). • 2. Clinical laboratory values. • 3. Vital signs. • 4. ECG. • 5. Proportion of subjects who prematurely discontinue treatment. • 6. Proportion of subjects who prematurely discontinue treatment due to AEs. • 7. Time to premature treatment discontinuation. • 8. Time to premature treatment discontinuation due to AEs.

[2] = in vivo; cited from earlier work

## CCN(C(=O)c1c(O)c2c(Cl)cccc2n(C)c1=O)c1ccccc1 [laquinimod]
[1]; 0.5-2.0 mg/day
  dose response relationship for the overall incidence of AEs: no apparent dose response relationship
[1]; Laq 0.5 mg (N = 29)
  Common Adverse Events: Abdominal Distension: 10.3%
  Common Adverse Events: Abdominal Pain: 17.2%
  Common Adverse Events: Abdominal Pain Upper: 3.4%
  Common Adverse Events: Alanine Aminotransferase Increased: 0%
  Common Adverse Events: Asthenia: 3.4%
  Common Adverse Events: Back Pain: 10.3%
  Common Adverse Events: Cough: 6.9%
  Common Adverse Events: Crohn's Disease^a: 6.9%
  Common Adverse Events: Diarrhoea: 20.7%
  Common Adverse Events: Dizziness: 3.4%
  Common Adverse Events: Fatigue: 6.9%
  Common Adverse Events: Headache: 24.1%
  Common Adverse Events: Myalgia: 0%
  Common Adverse Events: Nausea: 3.4%
  Common Adverse Events: Pyrexia: 24.1%
  Common Adverse Events: Rectal Haemorrhage: 0%
  Common Adverse Events: Tachycardia: 0%
  Common Adverse Events: Vomiting: 17.2%
[1]; Laq 1.0 mg (N = 30)
  Common Adverse Events: Abdominal Distension: 0%
  Common Adverse Events: Abdominal Pain: 13.3%
  Common Adverse Events: Abdominal Pain Upper: 0%
  Common Adverse Events: Alanine Aminotransferase Increased: 10%
  Common Adverse Events: Asthenia: 6.7%
  Common Adverse Events: Back Pain: 10%
  Common Adverse Events: Cough: 10%
  Common Adverse Events: Crohn's Disease^a: 16.7%
  Common Adverse Events: Diarrhoea: 3.3%
  Common Adverse Events: Dizziness: 3.3%
  Common Adverse Events: Fatigue: 0%
  Common Adverse Events: Headache: 26.7%
  Common Adverse Events: Myalgia: 3.3%
  Common Adverse Events: Nausea: 20%
  Common Adverse Events: Pyrexia: 3.3%
  Common Adverse Events: Rectal Haemorrhage: 3.3%
  Common Adverse Events: Tachycardia: 0%
  Common Adverse Events: Vomiting: 20%
[1]; Laq 1.5 mg (N = 29)
  Common Adverse Events: Abdominal Distension: 3.4%
  Common Adverse Events: Abdominal Pain: 24.1%
  Common Adverse Events: Abdominal Pain Upper: 6.9%
  Common Adverse Events: Alanine Aminotransferase Increased: 0%
  Common Adverse Events: Asthenia: 10.3%
  Common Adverse Events: Back Pain: 13.8%
  Common Adverse Events: Cough: 6.9%
  Common Adverse Events: Crohn's Disease^a: 17.2%
  Common Adverse Events: Diarrhoea: 0%
  Common Adverse Events: Dizziness: 10.3%
  Common Adverse Events: Fatigue: 10.3%
  Common Adverse Events: Headache: 24.1%
  Common Adverse Events: Myalgia: 0%
  Common Adverse Events: Nausea: 6.9%
  Common Adverse Events: Pyrexia: 20.7%
  Common Adverse Events: Rectal Haemorrhage: 10.3%
  Common Adverse Events: Tachycardia: 10.3%
  Common Adverse Events: Vomiting: 3.4%
[1]; Laq 2.0 mg (N = 29)
  Common Adverse Events: Abdominal Distension: 3.4%
  Common Adverse Events: Abdominal Pain: 24.1%
  Common Adverse Events: Abdominal Pain Upper: 17.2%
  Common Adverse Events: Alanine Aminotransferase Increased: 3.4%
  Common Adverse Events: Asthenia: 6.9%
  Common Adverse Events: Back Pain: 3.4%
  Common Adverse Events: Cough: 3.4%
  Common Adverse Events: Crohn's Disease^a: 13.8%
  Common Adverse Events: Diarrhoea: 10.3%
  Common Adverse Events: Dizziness: 3.4%
  Common Adverse Events: Fatigue: 0%
  Common Adverse Events: Headache: 44.8%
  Common Adverse Events: Myalgia: 17.2%
  Common Adverse Events: Nausea: 20.7%
  Common Adverse Events: Pyrexia: 13.8%
  Common Adverse Events: Rectal Haemorrhage: 0%
  Common Adverse Events: Tachycardia: 3.4%
  Common Adverse Events: Vomiting: 20.7%
[1]; active Crohns disease
  tolerability: well tolerated
[1]; any of the dose groups
  change from Baseline in biochemical or hematological parameters: no consistent trends in change from Baseline
[1]; in vivo
  deaths during the study: No subject died
  severity of most AEs: mild or moderate
[1]; laquinimod dose groups
  changes in vital signs or ECGs: no clinically significant changes
[1]; laquinimod groups, pooled placebo 1.6%
  most common SAE: CD (exacerbation), % of patients: 3.4-6.9%
[1]; laquinimod groups, pooled placebo 82.5%
  overall incidence of AEs: 86.2-96.7%
[2]
  oral bioavailability: high
